Experimental data taken from patent US11964971B2, “Methods and compositions for modulating splicing” (Skyhawk Therapeutics, Inc., priority 2019, dated 2024).
Where two headings read alike, the source gives them in different places.

What was measured:
[1] = system: SMN protein; assay: SMN protein assay (MSD) in SMA patient fibroblasts (GM03813); format: cell-based, human
Procedure, shortened: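 Absolute SMN protein measured by Mesoscale Discovery assay in lysates, calibrated per plate with SMN standards (1–19.5 μg/ml). Cells: GM03813 SMA fibroblasts, 7000/well, 48 h compound exposure at doses of 2.5 μM down to 0.6 nM.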

[2] = system: MDR1-MDCK cell monolayers; assay: MDCK-MDR1 permeability assay, blood-brain-barrier penetration potential
[3] = system: MDR1-MDCK cell monolayers; details: dog, MDCK-MDR1, 120 min, 5 μM, pH 7.4
[4] = system: SMN FL and SMN Δ7; assay: Quantitative splicing assay (SMN) in SMA patient fibroblasts (GM03813); format: cell-based; details: Homo sapiens, Fibroblast; class symbol; read-out: SMN2 Splicing FL EC50 (nM)*
Protocol: Spinal muscular atrophy (SMA) patient fibroblasts (GM03813, Coriell) are plated in 96-well plates at 50,000 cells/well. […] Treated cells are lysed and cDNA synthesized using the Fast Advanced Cells-to-Ct kit (Thermofisher A35378) according to the manufacturer's instructions. 2 μL of each cDNA are used in qPCR reactions. […] Reactions are run in a Quant Studio 6 qPCR instrument with default settings.

[5] = system: MDR1; assay: in vitro; details: dog; for Papp A→B at 120 min, 5 μM: MDCK-MDR1, pH 7.4, MDCK-MDR1: Papp A-B (10^−6, cm/s); for Papp B→A at 120 min, 5 μM: MDCK-MDR1, pH 7.4, MDCK-MDR1: Papp B-A (10^−6, cm/s)
[6] = system: MDR1 (P-gp); assay: in vitro; details: dog, MDCK-MDR1, pH 7.4
[7] = system: MDR1; assay: MDCK-MDR1 permeability assay, blood-brain-barrier penetration potential; details: dog, MDCK-MDR1, pH 7.4
[8] = system: MDR1 (P-gp); assay: as above; details: dog, MDCK-MDR1, pH 7.4, MDCK-MDR1 Efflux Ratio
[9] = dog, MDCK-MDR1, 120 min, 5 μM, pH 7.4

Row | Compound | EC50 [1] | MDCK-MDR1: % Recov A-B (%) ([2]; A-B) | MDCK-MDR1: Papp A-B (10^−6, cm/s) ([2]; A-B) | MDCK-MDR1: % Recov B-A (%) ([2]; B-A) | MDCK-MDR1: Papp B-A (10^−6, cm/s) ([2]; B-A) | MDCK-MDR1 Efflux Ratio ([2]; MDCK-MDR1) | MDCK-MDR1 Efflux Ratio [2, 9] | MDCK-MDR1: % Recov A-B (%) [3] | MDCK-MDR1: % Recov B-A (%) [3] | MDCK-MDR1: Papp A-B (10^−6, cm/s) [3] | MDCK-MDR1: Papp B-A (10^−6, cm/s) [3] | EC50 [4] | Papp A→B at 120 min, 5 μM [5] | Papp B→A at 120 min, 5 μM [5] | efflux ratio at 120 min, 5 μM [6] | Papp A→B at 120 min, 5 μM [7] | Papp B→A at 120 min, 5 μM [7] | efflux ratio at 120 min, 5 μM [8]
1 | 2-(5-(((1S,2S,3R,5R)-2-fluoro-8-azabicyclo[3.2.1]octan-3-yl)(methyl)aniino)pyrazin-2-yl)-5-(6-methoxypyrimidin-4-yl)phenol [Compound 34E1] | 101 to 500 nM | 20% | 2.78 10^−6, cm/s | 60% | 8.79 10^−6, cm/s | 3 | – | – | – | – | – | – | – | – | – | – | – | –
2 | CN(c1cnc(-c2cc(F)c(-c3cnn(C)c3)cc2O)cn1)[C@H]1C[C@@H]2CCC(N2)[C@H]1F (single isomer, unassigned) [Compound 17E2] | 0.01 to 15 nM | – | – | – | – | – | 4 | 24% | 52% | 4.68 10^−6, cm/s | 18 10^−6, cm/s | 101 to 500 nM | – | – | – | – | – | –
3 | Cn1cc(-c2ccc(-c3cnc(N(C4CC4)[C@@H]4CC5CC[C@H](N5)[C@@H]4F)cn3)c(O)c2)cn1 (single isomer, unassigned) [Compound 49E2] | 501 to 10000 nM | – | – | – | – | – | 8 | 48% | 63% | 4.55 10^−6, cm/s | 34.9 10^−6, cm/s | – | – | – | – | – | – | –
4 | COc1cc(-c2cc(O)c(-c3cnc(N(C)[C@@H]4C[C@@]5(C)CC[C@](C)(N5)[C@@H]4F)cn3)cc2F)cnn1 (single isomer, unassigned) [Compound 64E2] | 101 to 500 nM | – | – | – | – | – | 11 | 69% | 78% | 4.1 10^−6, cm/s | 44.1 10^−6, cm/s | – | – | – | – | – | – | –
5 | CNC(=O)/C=C/c1cc(O)c(-c2cnc(N(C3CC3)[C@H]3C[C@]4(C)CC[C@@](C)(N4)[C@H]3F)cn2)cc1F (single isomer, unassigned) [Compound 79E2] | – | – | – | – | – | – | – | 91% | 89% | – | – | – | 2.05 ×10⁻⁶ cm/s | 52.7 ×10⁻⁶ cm/s | 26 | – | – | –
6 | CN(c1cnc(-c2ccc(-c3cn[nH]c3)cc2O)cn1)[C@@H]1C[C@@]2(C)CC[C@](C)(N2)[C@@H]1F [Compound 22E1, 2-(5-(((1S,2R,3R,5R)-2-fluoro-1,5-dimethyl-8-azabicyclo[3.2.1]octan-3-yl)(methyl)amino)pyrazin-2-yl)-5-(1H-pyrazol-4-yl)phenol] | 501 to 10000 nM | 63% | – | 78% | – | – | – | – | – | – | – | – | – | – | – | 4.14 ×10⁻⁶ cm/s | 39.8 ×10⁻⁶ cm/s | 10
7 | CN(c1cnc(-c2ccc(-c3cn[nH]c3)cc2O)cn1)[C@H]1C[C@]2(C)CC[C@@](C)(N2)[C@H]1F [Compound 22E2, 2-(5-(((1R,2S,3S,5S)-2-fluoro-1,5-dimethyl-8-azabicyclo[3.2.1]octan-3-yl)(methyl)amino)pyrazin-2-yl)-5-(1H-pyrazol-4-yl)phenol] | 501 to 10000 nM | 66% | – | 81% | – | – | – | – | – | – | – | – | – | – | – | 3.49 ×10⁻⁶ cm/s | 34.5 ×10⁻⁶ cm/s | 10
8 | COc1cc(-c2ccc(-c3cnc(N(C)[C@@H]4C[C@@]5(C)CC[C@](C)(N5)[C@@H]4F)cn3)c(O)c2)cnn1 [Compound 25E1, 2-(5-(((1S,2R,3R,5R)-2-fluoro-1,5-dimethyl-8-azabicyclo[3.2.1]octan-3-yl)(methyl)amino)pyrazin-2-yl)-5-(6-methoxypyridazin-4-yl)phenol] | 501 to 10000 nM | – | – | – | – | – | – | 45% | 64% | – | – | 501 to 10000 nM | 5.6 ×10⁻⁶ cm/s | 39.6 ×10⁻⁶ cm/s | – | – | – | 7
9 | COc1cc(-c2ccc(-c3cnc(N(C)[C@H]4C[C@]5(C)CC[C@@](C)(N5)[C@H]4F)cn3)c(O)c2)cnn1 [Compound 25E2, 2-(5-(((1R,2S,3S,5S)-2-fluoro-1,5-dimethyl-8-azabicyclo[3.2.1]octan-3-yl)(methyl)amino)pyrazin-2-yl)-5-(6-methoxypyridazin4-yl)phenol] | 101 to 500 nM | – | – | – | – | – | – | 42% | 70% | – | – | 501 to 10000 nM | 5.01 ×10⁻⁶ cm/s | 22.9 ×10⁻⁶ cm/s | – | – | – | 5
10 | CN(c1cnc(-c2cc(F)c(-c3cn[nH]c3)cc2O)cn1)[C@@H]1C[C@@]2(C)CC[C@](C)(N2)[C@@H]1F [Compound 57E1, 4-fluoro-2-(5-(((1S,2R,3R,5R)-2-fluoro-1,5-dimethyl-8-azabicyclo[3.2.1]octan-3-yl)(methyl)amino)pyrazin-2-yl)-5-(1H-pyrazol-4-yl)phenol] | 16 to 50 nM | – | – | – | – | – | – | 37% | 59% | – | – | 101 to 500 nM | 5.9 ×10⁻⁶ cm/s | 18.8 ×10⁻⁶ cm/s | – | – | – | 3
11 | CN(c1cnc(-c2cc(F)c(-c3cn[nH]c3)cc2O)cn1)[C@H]1C[C@]2(C)CC[C@@](C)(N2)[C@H]1F [Compound 57E2, 4-fluoro-2-(5-(((1R,2S,3S,5S)-2-fluoro-1,5-dimethyl-8-azabicyclo[3.2.1]octan-3-yl)(methyl)amino)pyrazin-2-yl)-5-(1H-pyrazol-4-yl)phenol] | 0.01 to 15 nM | – | – | – | – | – | – | 35% | 64% | – | – | 501 to 10000 nM | 5.8 ×10⁻⁶ cm/s | 20 ×10⁻⁶ cm/s | – | – | – | 3
12 | CN(c1cnc(-c2cc(F)c(-c3cnn(C)c3)cc2O)cn1)[C@H]1C[C@]2(C)CC[C@@](C)(N2)[C@H]1F [Compound 58E2, 4-fluoro-2-(5-(((1R,2S,3S,5S)-2-fluoro-1,5-dimethyl-8-azabicyclo[3.2.1]octan-3-yl)(methyl)amino)pyrazin-2-yl)-5-(1-methyl-1H-pyrazol-4-yl)phenol] | 0.01 to 15 nM | – | – | – | – | – | – | 32% | 69% | – | – | 101 to 500 nM | 5.98 ×10⁻⁶ cm/s | 16.4 ×10⁻⁶ cm/s | – | – | – | 3
13 | CNC(=O)/C=C/c1cc(O)c(-c2cnc(N(C)[C@H]3C[C@]4(C)CC[C@@](C)(N4)[C@H]3F)cn2)cc1F [Compound 61E2, (E)-3-(2-fluoro-4-(5-(((1R,2S,3S,5S)-2-fluoro-1,5-dimethyl-8-azabicyclo[3.2.1]octan-3-yl)(methyl)amino)pyrazin-2-yl)-5-hydroxyphenyl)-N-methylacrylamide] | 0.01 to 15 nM | – | – | – | – | – | – | 86% | 89% | – | – | 501 to 10000 nM | 0.77 ×10⁻⁶ cm/s | 41.9 ×10⁻⁶ cm/s | – | – | – | 54
14 | CN(c1cnc(-c2cc(F)c(-c3ccn(C)c(=O)c3)cc2O)cn1)[C@@H]1C[C@@]2(C)CC[C@](C)(N2)[C@@H]1F [Compound 62E1, 4-(2-fluoro-4-(5-(((1S,2R,3R,5R)-2-fluoro-1,5-dimethyl-8-azabicyclo[3.2.1]octan-3-yl)(methyl)amino)pyrazin-2-yl)-5-hydroxyphenyl)-1-methylpyridin-2(1H)-one] | 501 to 10000 nM | – | – | – | – | – | 14 | – | – | 2.88 10^−6, cm/s | 41.5 10^−6, cm/s | – | 2.82 ×10⁻⁶ cm/s | 30.7 ×10⁻⁶ cm/s | – | – | – | 11
15 | CN(c1cnc(-c2ccc(-c3cc[nH]c(=O)c3)cc2O)cn1)[C@H]1C[C@@H]2CC[C@@H](N2)[C@H]1F [Compound 76E2, 4-(4-(5-(((1R,2R,3S,5S)-2-fluoro-8-azabicyclo[3.2.1]octan-3-yl)(methyl)amino)pyrazin-2-yl)-3-hydroxyphenyl)pyridin-2(1H)-one] | 16 to 50 nM | – | – | – | – | – | – | 93% | 75% | – | – | 101 to 500 nM | 0.37 ×10⁻⁶ cm/s | 28.9 ×10⁻⁶ cm/s | – | – | – | 78
